Results on 2 compounds are retold here after patent US11957649B2, “Methods and pharmaceutical preparations for elevating ketone utilization” (GLYKON TECHNOLOGIES GROUP, LLC, priority 2020, dated 2024).

The structures appear in SMILES notation.

One test deals with T1, pancreatic alpha-amylase (Homo sapiens, UniProt P04746).
T1 sequence (P04746 16-511): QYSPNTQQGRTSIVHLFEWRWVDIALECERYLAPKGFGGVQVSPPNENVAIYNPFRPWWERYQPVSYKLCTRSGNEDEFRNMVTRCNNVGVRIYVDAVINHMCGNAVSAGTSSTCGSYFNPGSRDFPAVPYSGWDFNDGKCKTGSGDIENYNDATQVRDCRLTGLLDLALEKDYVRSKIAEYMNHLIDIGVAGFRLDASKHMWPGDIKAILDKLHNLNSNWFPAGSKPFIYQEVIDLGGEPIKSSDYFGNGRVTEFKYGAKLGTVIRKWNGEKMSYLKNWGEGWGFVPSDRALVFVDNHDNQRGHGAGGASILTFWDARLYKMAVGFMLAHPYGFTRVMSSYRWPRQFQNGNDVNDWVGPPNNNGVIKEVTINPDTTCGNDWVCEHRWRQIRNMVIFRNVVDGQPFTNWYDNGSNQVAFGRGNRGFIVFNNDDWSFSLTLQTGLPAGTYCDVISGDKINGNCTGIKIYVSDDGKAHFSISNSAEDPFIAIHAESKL
The note with it: background statement, in vitro; cited from earlier work.

Test [1] relates to intestinal alpha-glucosidase. Particulars: background statement, in vitro; cited from earlier work.
The nature of test [2]: fNIRS measurement of blood hemoglobin and oxygen saturation after oral administration. The note with it: overall statement on HCA administration. The test is classed as in vivo, human. As for the experimental part: Subjects 1-4 were orally administered the formulation of Example 1. The Subjects were given either one or two administrations of 8.33 ml of the aqueous formulation of Example 1 on an empty stomach, i.e. wherein with each 8.33 ml the subject received 2,500 mg of the potassium-magnesium (−)-hydroxycitric acid salt, corresponding to 1745 mg of (−)-hydroxycitric acid.
fNIRS testing (functional Near Infrared Spectroscopy) was used to measure blood hemoglobin and oxygen saturation. fNIRS can be used to determine real-time peripheral and cerebral hemodynamic responses. For example, relative changes in HbR (deoxygen saturation), HbO (oxygen saturation), and HbT (total hemoglobin concentration), etc. can be determined via application of Modified Beer Lambert Law. HbR, Hb=deoxygen saturation (shown as the thinnest and bottom dashed line in FIG. 1) HbO, HbO2=oxygen saturation (shown as the medium-thickness and middle line in FIG. 1) HbT=total hemoglobin concentration (shown as the darkest, thickest and top line in FIG. 1). On the graphs, time is in seconds.

Test [3] can be described thus: Blood levels of biomolecules before and 90 minutes after administration. The test is classed as in vivo, human. As for the experimental part: Subject 5 was a person, weighing approximately 285 pounds and with a normal fasting blood sugar level of 115-120. First, blood was drawn from Subject 5 and levels of various biomolecules were measured. Next, Subject 5 was administered 16.66 ml of the Example 1 formulation on an empty stomach, i.e. wherein with each 16.66 ml the subject received 5,000 mg of the potassium-magnesium (−)-hydroxycitric acid salt, corresponding to 3490 mg of (−)-hydroxycitric acid. 90 minutes after the administration, blood was drawn from Subject 5 and levels of the various biomolecules were remeasured.
Subject 6 was administered 16.66 ml of the Example 1 formulation on an empty stomach, i.e. wherein with each 16.66 ml the subject received 5,000 mg of the potassium-magnesium (−)-hydroxycitric acid salt, corresponding to 3490 mg of (−)-hydroxycitric acid. 90 minutes after the administration, blood was drawn from Subject 6 and levels of the various biomolecules were remeasured.

Another test concerns the target T2, ATP citrate lyase (Homo sapiens, UniProt P53396).
T2 sequence (P53396 1-1101): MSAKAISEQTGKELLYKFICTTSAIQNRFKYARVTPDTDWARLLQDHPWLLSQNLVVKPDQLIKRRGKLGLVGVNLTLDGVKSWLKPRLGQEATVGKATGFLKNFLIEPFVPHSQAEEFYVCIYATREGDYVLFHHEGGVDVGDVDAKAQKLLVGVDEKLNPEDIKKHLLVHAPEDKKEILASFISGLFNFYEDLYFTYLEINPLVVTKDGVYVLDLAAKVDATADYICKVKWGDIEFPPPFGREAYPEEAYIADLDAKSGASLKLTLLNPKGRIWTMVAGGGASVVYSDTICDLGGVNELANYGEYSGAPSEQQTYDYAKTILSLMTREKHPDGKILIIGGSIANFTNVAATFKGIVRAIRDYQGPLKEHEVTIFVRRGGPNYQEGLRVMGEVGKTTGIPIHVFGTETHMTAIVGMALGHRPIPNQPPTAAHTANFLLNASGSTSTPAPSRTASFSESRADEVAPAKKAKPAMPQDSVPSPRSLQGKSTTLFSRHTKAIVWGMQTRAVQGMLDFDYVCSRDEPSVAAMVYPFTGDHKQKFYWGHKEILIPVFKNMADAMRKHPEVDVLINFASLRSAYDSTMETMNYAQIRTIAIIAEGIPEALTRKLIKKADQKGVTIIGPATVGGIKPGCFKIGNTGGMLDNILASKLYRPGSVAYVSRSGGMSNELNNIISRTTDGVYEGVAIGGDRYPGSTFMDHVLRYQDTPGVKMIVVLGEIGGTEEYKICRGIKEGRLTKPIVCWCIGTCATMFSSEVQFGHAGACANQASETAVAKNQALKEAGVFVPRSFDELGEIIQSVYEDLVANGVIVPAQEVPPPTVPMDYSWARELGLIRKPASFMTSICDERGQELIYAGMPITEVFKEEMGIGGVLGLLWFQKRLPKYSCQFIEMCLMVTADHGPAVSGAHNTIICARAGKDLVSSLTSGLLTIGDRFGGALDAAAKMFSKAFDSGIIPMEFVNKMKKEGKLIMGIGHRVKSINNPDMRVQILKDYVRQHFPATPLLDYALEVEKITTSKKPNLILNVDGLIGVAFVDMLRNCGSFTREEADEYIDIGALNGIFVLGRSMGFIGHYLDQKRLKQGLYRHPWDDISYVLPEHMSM
The note with it: background statement; cited from earlier work.

Setting [4] is: overall conclusion on HCA administration.

As for `O=C(O)C[C@](O)(C(=O)O)[C@H](O)C(=O)O` [(2S,3R)-HCA], the “inhibition of pancreatic alpha-amylase” value at pancreatic alpha-amylase was “inhibits”. Also, the “inhibition of intestinal alpha-glucosidase” value in test [1] is on record as “inhibits”.

In the case of `O=C(O)CC(O)(C(=O)O)C(O)C(=O)O` (stereo not shown) [HCA, 1,2-dihydroxypropane-1,2,3-tricarboxylic acid], in test [2], the blood hemoglobin result is “increased” and the oxygen saturation result was “increased”. Besides, the “Ketones Result” value in test [3] (Subject 5, 16.66 ml on empty stomach, 90 mins after administration, before (fasting) 0.6) turned out to be 0.5. In test [3] (setting [4]), the cortisol entry is “decreased”, the levels of ketones result was “relatively stable or slightly lower levels” and the triglycerides entry was “decreased”. Besides, the glucose result in test [3] (overall conclusion on HCA administration, in some cases transient) is given as “increased”. Further, at ATP citrate lyase, the “inhibition of ATP citrate lyase” value is given as “competitive inhibitor”.
